# Results reported in ChEMBL document CHEMBL1201862, “PubChem BioAssay data set” (2004).
#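 Protocol summary: plate cells (96-well), add compound at 5 concentrations, incubate 48 h, interpolate endpoints linearly. Here, GI50 denotes the concentration required for 50% inhibition of growth.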 Active and inactive are the calls of the source. Rule as the data show it: active = GI50 up to about 1.1 µM and inactive = higher.
# Assays:
# Assay in all cases: inhibition of tumour cell growth, NCI panel, 48 h
# 786-0 = test system: 786-0
# A498 = test system: A498
# A549 = test system: A549
# ACHN = test system: ACHN
# BT-549 = test system: BT-549
# CAKI-1 = test system: CAKI-1
# COLO 205 = test system: COLO 205
# DU-145 = test system: DU-145
# EKVX = test system: EKVX
# HCC 2998 = test system: HCC 2998
# HCT-116 = test system: HCT-116
# HCT-15 = test system: HCT-15
# HOP-62 = test system: HOP-62
# HOP-92 = test system: HOP-92
# HT-29 = test system: HT-29
# Hs-578T = test system: Hs-578T
# KM12 = test system: KM12
# M14 = test system: M14
# MDA-MB-231 = test system: MDA-MB-231
# MDA-MB-435 = test system: MDA-MB-435
# MOLT-4 = test system: MOLT-4
# Malme-3M = test system: Malme-3M
# NCI-H226 = test system: NCI-H226
# NCI-H23 = test system: NCI-H23
# NCI-H460 = test system: NCI-H460
# NCI-H522 = test system: NCI-H522
# NCI/ADR-RES = test system: NCI/ADR-RES
# OVCAR-3 = test system: OVCAR-3
# OVCAR-4 = test system: OVCAR-4
# OVCAR-5 = test system: OVCAR-5
# PC-3 = test system: PC-3
# RXF 393 = test system: RXF 393
# SF-268 = test system: SF-268
# SF-295 = test system: SF-295
# SF-539 = test system: SF-539
# SK-MEL-2 = test system: SK-MEL-2
# SK-MEL-5 = test system: SK-MEL-5
# SK-OV-3 = test system: SK-OV-3
# SNB-19 = test system: SNB-19
# SNB-75 = test system: SNB-75
# SR = test system: SR
# SW-620 = test system: SW-620
# T47D = test system: T47D
# TK-10 = test system: TK-10
# U-251 = test system: U-251
# UACC-257 = test system: UACC-257
# UACC-62 = test system: UACC-62
# UO-31 = test system: UO-31
# CCRF-CEM = test system: CCRF-CEM
# IGROV-1 = test system: IGROV-1
# K562 = test system: K562
# LOX IMVI = test system: LOX IMVI
# MCF7 = test system: MCF7
# RPMI-8226 = test system: RPMI-8226
# SK-MEL-28 = test system: SK-MEL-28
# HL-60 = test system: HL-60
# OVCAR-8 = test system: OVCAR-8
smiles,measurement,setting,value
Cc1c(/C=N\NC(=S)N2CCN(C(=S)N/N=C\c3c(C)n(C)n(-c4ccccc4)c3=O)CC2)c(=O)n(-c2ccccc2)n1C,GI50,786-0,33.7 µM (inactive)
same,GI50,A498,65.3 µM (inactive)
same,GI50,A549,47.9 µM (inactive)
same,GI50,ACHN,21.2 µM (inactive)
same,GI50,BT-549,44 µM (inactive)
same,GI50,CAKI-1,82.6 µM (inactive)
same,GI50,COLO 205,> 100 µM (inactive)
same,GI50,DU-145,56 µM (inactive)
same,GI50,EKVX,71.6 µM (inactive)
same,GI50,HCC 2998,45.4 µM (inactive)
same,GI50,HCT-116,49.5 µM (inactive)
same,GI50,HCT-15,46.9 µM
same,GI50,HOP-62,37.2 µM (inactive)
same,GI50,HOP-92,40.9 µM (inactive)
same,GI50,HT-29,13.1 µM (inactive)
same,GI50,Hs-578T,33 µM (inactive)
same,GI50,KM12,69.7 µM (inactive)
same,GI50,M14,57 µM (inactive)
same,GI50,MDA-MB-231,24 µM (inactive)
same,GI50,MDA-MB-435,4.52 µM (inactive)
same,GI50,MOLT-4,37.4 µM (inactive)
same,GI50,Malme-3M,72.4 µM (inactive)
same,GI50,NCI-H226,> 100 µM (inactive)
same,GI50,NCI-H23,50.9 µM (inactive)
same,GI50,NCI-H460,42 µM (inactive)
same,GI50,NCI-H522,60.7 µM (inactive)
same,GI50,NCI/ADR-RES,> 100 µM (inactive)
same,GI50,OVCAR-3,51.9 µM (inactive)
same,GI50,OVCAR-4,> 100 µM (inactive)
same,GI50,OVCAR-5,> 100 µM (inactive)
same,GI50,PC-3,32.9 µM (inactive)
same,GI50,RXF 393,67.9 µM (inactive)
same,GI50,SF-268,> 100 µM (inactive)
same,GI50,SF-295,28.4 µM (inactive)
same,GI50,SF-539,> 100 µM (inactive)
same,GI50,SK-MEL-2,13.1 µM (inactive)
same,GI50,SK-MEL-5,> 100 µM (inactive)
same,GI50,SK-OV-3,> 100 µM (inactive)
same,GI50,SNB-19,47.5 µM (inactive)
same,GI50,SNB-75,21.8 µM (inactive)
same,GI50,SR,47.9 µM (inactive)
same,GI50,SW-620,33.2 µM (inactive)
same,GI50,T47D,36.1 µM (inactive)
same,GI50,TK-10,5.7 µM (inactive)
same,GI50,U-251,29.1 µM (inactive)
same,GI50,UACC-257,26.8 µM (inactive)
same,GI50,UACC-62,32.9 µM (inactive)
same,GI50,UO-31,> 100 µM (inactive)
O=S(=O)(c1ccc(NC(=S)N/N=C/c2ccccc2O)cc1)N1CCCCC1,GI50,786-0,0.188 µM (active)
same,GI50,A498,0.264 µM (active)
same,GI50,A549,0.255 µM (active)
same,GI50,ACHN,< 0.01 µM (active)
same,GI50,BT-549,37.8 µM (inactive)
same,GI50,CCRF-CEM,< 0.023 µM (active)
same,GI50,COLO 205,0.773 µM (active)
same,GI50,EKVX,1.29 µM (inactive)
same,GI50,HCT-15,< 0.01 µM
same,GI50,HOP-62,0.114 µM (active)
same,GI50,HOP-92,12.2 µM (inactive)
same,GI50,HT-29,7.73 µM (inactive)
same,GI50,Hs-578T,1.91 µM (inactive)
same,GI50,IGROV-1,1.73 µM (inactive)
same,GI50,K562,0.341 µM (active)
same,GI50,LOX IMVI,< 0.01 µM (active)
same,GI50,M14,0.0771 µM (active)
same,GI50,MCF7,0.255 µM (active)
same,GI50,MDA-MB-435,0.302 µM (active)
same,GI50,Malme-3M,0.181 µM (active)
same,GI50,NCI-H226,0.151 µM (active)
same,GI50,NCI-H23,0.281 µM (active)
same,GI50,NCI-H522,1.61 µM (inactive)
same,GI50,NCI/ADR-RES,0.0676 µM (active)
same,GI50,OVCAR-3,< 0.0498 µM (active)
same,GI50,OVCAR-5,0.269 µM (active)
same,GI50,PC-3,0.191 µM (active)
same,GI50,RPMI-8226,0.214 µM (active)
same,GI50,RXF 393,56.8 µM (inactive)
same,GI50,SF-268,0.0446 µM (active)
same,GI50,SF-295,0.0656 µM (active)
same,GI50,SF-539,0.326 µM (active)
same,GI50,SK-MEL-28,1.21 µM (inactive)
same,GI50,SK-MEL-2,0.459 µM (active)
same,GI50,SK-MEL-5,< 0.01 µM (active)
same,GI50,SK-OV-3,0.39 µM (active)
same,GI50,SNB-19,0.879 µM (active)
same,GI50,SNB-75,1.36 µM (inactive)
same,GI50,SW-620,< 0.01 µM (active)
same,GI50,T47D,0.419 µM (active)
same,GI50,TK-10,< 0.0457 µM (active)
same,GI50,UACC-257,0.735 µM (active)
same,GI50,UACC-62,< 0.01 µM (active)
same,GI50,UO-31,1.29 µM (inactive)
CCCCCCC(=O)c1ccc2ccccc2c1O,GI50,786-0,38.8 µM (inactive)
same,GI50,A498,0.318 µM (active)
same,GI50,ACHN,54 µM (inactive)
same,GI50,BT-549,76 µM (inactive)
same,GI50,CAKI-1,43.2 µM (inactive)
same,GI50,CCRF-CEM,33.1 µM (inactive)
same,GI50,COLO 205,66.1 µM (inactive)
same,GI50,DU-145,26.6 µM (inactive)
same,GI50,EKVX,25.4 µM (inactive)
same,GI50,HCC 2998,> 100 µM (inactive)
same,GI50,HCT-116,53 µM (inactive)
same,GI50,HCT-15,32.8 µM
same,GI50,HL-60,36.4 µM (inactive)
same,GI50,HOP-62,> 100 µM (inactive)
same,GI50,HOP-92,93.3 µM (inactive)
same,GI50,HT-29,25.1 µM (inactive)
same,GI50,Hs-578T,56 µM (inactive)
same,GI50,IGROV-1,27.4 µM (inactive)
same,GI50,K562,> 100 µM (inactive)
same,GI50,KM12,31 µM (inactive)
same,GI50,LOX IMVI,42.1 µM (inactive)
same,GI50,M14,58.3 µM (inactive)
same,GI50,MCF7,33.4 µM (inactive)
same,GI50,MDA-MB-231,85.5 µM (inactive)
same,GI50,MDA-MB-435,69.2 µM (inactive)
same,GI50,MOLT-4,20.3 µM (inactive)
same,GI50,NCI-H226,40.1 µM (inactive)
same,GI50,NCI-H23,92.5 µM (inactive)
same,GI50,NCI-H460,52.4 µM (inactive)
same,GI50,NCI/ADR-RES,51.2 µM (inactive)
same,GI50,OVCAR-4,> 100 µM (inactive)
same,GI50,OVCAR-8,41.7 µM (inactive)
same,GI50,PC-3,61 µM (inactive)
same,GI50,RPMI-8226,98.4 µM (inactive)
same,GI50,RXF 393,25.1 µM (inactive)
same,GI50,SF-268,34.2 µM (inactive)
same,GI50,SF-295,34.5 µM (inactive)
same,GI50,SF-539,52.7 µM (inactive)
same,GI50,SK-MEL-28,> 100 µM (inactive)
same,GI50,SK-MEL-2,23.8 µM (inactive)
same,GI50,SK-MEL-5,> 100 µM (inactive)
same,GI50,SK-OV-3,52.4 µM (inactive)
same,GI50,SNB-19,> 100 µM (inactive)
same,GI50,SNB-75,43.1 µM (inactive)
same,GI50,SR,33.3 µM (inactive)
same,GI50,SW-620,64.7 µM (inactive)
same,GI50,T47D,34.8 µM (inactive)
same,GI50,TK-10,> 100 µM (inactive)
same,GI50,U-251,> 100 µM (inactive)
same,GI50,UACC-257,32.7 µM (inactive)
same,GI50,UACC-62,47 µM (inactive)
same,GI50,UO-31,47.6 µM (inactive)
